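In this assay, cells in 96-well plates receive the compound at five concentrations for 48 hours. Endpoints are linearly interpolated between the surrounding concentrations. GI50: concentration for 50% inhibition of growth.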 Activity calls are given as the source filed them. Cut-off read from the data, not from the text of the source: active = GI50 up to about 1.1 µM and inactive = higher.

Common to all, as to test: growth of human tumour cells (NCI), 48 h
The test system of assay [1] is ACHN.
Assay [2] concerns OVCAR-4.
Assay [3] deals with HCT-15.
The test system of assay [4] is SK-MEL-28.
Assay [5] has as its system MDA-MB-435.
Assay [6] relates to MOLT-4.
Assay [7] concerns NCI-H23.
Assay [8] relates to SNB-19.
The subject of assay [9] is T47D.
The test system of assay [10] is NCI-H226.
The test system of assay [11] is SK-OV-3.
Assay [12] has as its system UACC-257.
Assay [13] relates to M14.
The subject of assay [14] is OVCAR-5.
Assay [15] concerns BT-549.
In assay [16] the test system is IGROV-1.
Assay [17] has as its system MDA-MB-231.
In assay [18] the test system is CCRF-CEM.
The test system of assay [19] is NCI-H522.
The subject of assay [20] is TK-10.

`CC(C)(C)OC(=O)NC1CCCC1C(O)(C1=CCCC1)C1=CCCC1` (configuration not stated): the GI50 in assay [1] is > 100 µM (inactive); in [2], 67.6 µM (inactive); in assay [3], > 100 µM; in assay [4], > 100 µM (inactive); in assay [5] it was > 100 µM (inactive); in assay [6], > 100 µM (inactive). Moreover, the GI50 in assay [7] was > 100 µM (inactive); in [8] it was > 100 µM (inactive); in assay [9] it was 25.6 µM (inactive); in [10] it was > 100 µM (inactive); in assay [11], > 100 µM (inactive); in assay [12], > 100 µM (inactive). The GI50 is > 100 µM (inactive) in assay [13]; > 100 µM (inactive) in [14]; > 100 µM (inactive) in [15]; > 100 µM (inactive) in assay [16]; 43.2 µM (inactive) in assay [17]; > 100 µM (inactive) in assay [18].

Turning to `Cc1ccccc1-n1c(=O)c2ncn(CCCl)c2n(-c2ccccc2C)c1=S`, the GI50 in assay [1] was > 100 µM (inactive); in assay [2], > 100 µM (inactive); in assay [3], > 100 µM; in assay [4], > 100 µM (inactive); in [5], > 100 µM (inactive); in assay [6] it was > 100 µM (inactive). Besides, the GI50 in [7] is > 100 µM (inactive); in assay [9], > 100 µM (inactive); in [19] it was 38.5 µM (inactive); in [20], > 100 µM (inactive); in assay [10] it was > 100 µM (inactive); in assay [11] it was > 100 µM (inactive). The GI50 in assay [12], in assay [13], in assay [14], in assay [15], in [16] and in assay [17] was > 100 µM (inactive) throughout. Also, the GI50 in assay [18] was > 100 µM (inactive).

`CC(C)(C)CNCCO`: the GI50 in assay [1] was > 100 µM (inactive); in [2] it was > 100 µM (inactive); in assay [3], > 100 µM; in [4] it was > 100 µM (inactive); in [5], > 100 µM (inactive); in assay [7], > 100 µM (inactive). In addition, the GI50 in assay [8], in [9], in assay [19], in assay [20], in assay [10] and in assay [11] was > 100 µM (inactive) throughout. The GI50 in [12], in [13], in assay [14], in assay [15], in assay [16] and in [17] was > 100 µM (inactive) in each case. The GI50 in assay [18] was > 100 µM (inactive).

With `Cc1c(CNc2ccc(Cl)c(C(=O)NC(CC(=O)O)C(=O)O)c2)ccc2nc(N)nc(N)c12` (configuration not stated), the GI50 in assay [1] is 0.0262 µM (active); in assay [3], 0.0265 µM; in [4], 10.1 µM (inactive); in assay [5], < 0.01 µM (active); in assay [7], 0.142 µM (active); in assay [8], 0.322 µM (active). Further, the GI50 is > 100 µM (inactive) in [9]; 3.83 µM (inactive) in assay [19]; 5.12 µM (inactive) in assay [20]; > 100 µM (inactive) in assay [10]; 33.7 µM (inactive) in [11]; 5.55 µM (inactive) in assay [12]. The GI50 was 0.0163 µM (active) in assay [13]; 1.4 µM (inactive) in [14]; 33.3 µM (inactive) in assay [15]; 0.0715 µM (active) in assay [16]; > 100 µM (inactive) in assay [17]; 0.0753 µM (active) in [18].

As for `COc1ccccc1C1c2cc3c(cc2OC2(OC)COC(=O)C12)OCO3` (configuration not stated), the GI50 in [1] was 22.2 µM (inactive); in assay [2] it was 19.1 µM (inactive); in assay [3] it was 5.33 µM; in assay [4] it was 7.53 µM (inactive); in assay [5], 2.27 µM (inactive); in assay [6], 5.33 µM (inactive). Also, the GI50 is 29.2 µM (inactive) in assay [7]; 21.2 µM (inactive) in assay [8]; 34.5 µM (inactive) in assay [9]; 39.4 µM (inactive) in assay [20]; 34.8 µM (inactive) in [10]; 18.8 µM (inactive) in assay [11]. Further, the GI50 is 19.7 µM (inactive) in assay [12]; 8.2 µM (inactive) in assay [13]; 44.1 µM (inactive) in assay [14]; 17.9 µM (inactive) in assay [15]; 13.1 µM (inactive) in assay [16]; 18.2 µM (inactive) in assay [17]. For the same compound, the GI50 in [18] is 12.9 µM (inactive).

Turning to `NC(=O)Nc1ccc(S(=O)(=O)Nc2ccc(S(N)(=O)=O)cc2)cc1`, the GI50 was > 100 µM (inactive) in assay [1]; > 100 µM (inactive) in [2]; > 100 µM in [3]; > 100 µM (inactive) in [4]; > 100 µM (inactive) in assay [5]; > 100 µM (inactive) in assay [7]. Moreover, the GI50 in assay [8], in [9], in [19], in [20], in assay [10] and in [12] was > 100 µM (inactive) in each case. For the same compound, the GI50 in [13], in [14], in [15], in [16], in assay [17] and in assay [18] was > 100 µM (inactive) throughout.

`CC(=O)Nc1cc(/C=C\C(=O)N2CC(CCl)c3c2cc(N)c2ccccc32)n(C)n1` (configuration not stated): the GI50 is < 0.001 µM (active) in assay [1]; 0.017 µM (active) in assay [2]; 0.0233 µM in assay [3]; 0.0144 µM (active) in assay [4]; 0.0169 µM (active) in assay [5]; 0.00201 µM (active) in assay [6]. Further, the GI50 in [7] was 0.00192 µM (active); in assay [8] it was 0.0386 µM (active); in assay [9] it was 0.00299 µM (active); in assay [20] it was 0.0191 µM (active); in assay [10], 0.00805 µM (active); in assay [11], 0.0163 µM (active). Further, the GI50 in assay [12] was 0.0132 µM (active); in [13], 0.0115 µM (active); in assay [14], 0.0215 µM (active); in assay [15], 0.0199 µM (active); in [16] it was 0.0137 µM (active); in assay [17], 0.045 µM (active). Further, the GI50 in assay [18] is < 0.001 µM (active).

For the compound `CN(C)CCNC(=O)c1cccc(N(C)C(=O)c2ccccc2)c1[N+](=O)[O-]`, the GI50 was > 100 µM (inactive) in assay [1]; > 100 µM in assay [3]; > 100 µM (inactive) in assay [4]; > 100 µM (inactive) in [5]; > 100 µM (inactive) in [6]; > 100 µM (inactive) in assay [7]. For the same compound, the GI50 in assay [8], in assay [9], in assay [19], in assay [20], in [10] and in assay [11] was > 100 µM (inactive) each time. For the same compound, the GI50 in assay [12] was > 10 µM (inactive); in [13] it was > 100 µM (inactive); in assay [14], > 100 µM (inactive); in assay [15], > 100 µM (inactive); in assay [16], > 100 µM (inactive); in assay [17], > 100 µM (inactive). The GI50 in [18] is > 100 µM (inactive).

Regarding `CN1CCN(c2ccc3[nH]c(-c4ccc5[nH]c(-c6ccc(O)cc6)nc5c4)nc3c2)CC1`, the GI50 in [1] was 281 µM (inactive); in [2] it was 274 µM (inactive); in [3], 224 µM; in assay [4] it was 19.8 µM (inactive); in assay [5], 8.28 µM (inactive); in assay [6], 29.1 µM (inactive). Further, the GI50 in assay [7] was 240 µM (inactive); in assay [8], 391 µM (inactive); in assay [9] it was 9.4 µM (inactive); in [19] it was 9.82 µM (inactive); in assay [20] it was 705 µM (inactive); in assay [10] it was 170 µM (inactive). Moreover, the GI50 in [11] was 664 µM (inactive); in assay [12], 52.1 µM (inactive); in assay [13], 149 µM (inactive); in assay [14], 473 µM (inactive); in assay [15], 455 µM (inactive); in assay [16], 117 µM (inactive). Also, the GI50 in assay [17] was 481 µM (inactive).

As to `C=CCSc1nn(CC=C)cc2ncnc1-2`, the GI50 was > 100 µM (inactive) in [1]; > 100 µM in assay [3]; > 100 µM (inactive) in assay [4]; > 100 µM (inactive) in assay [5]; > 100 µM (inactive) in assay [6]; > 100 µM (inactive) in assay [7]. Besides, the GI50 in assay [8], in [9], in assay [20], in assay [10], in assay [12] and in assay [13] was > 100 µM (inactive) throughout. Further, the GI50 in assay [14], in [15], in assay [16], in [17] and in assay [18] was > 100 µM (inactive) throughout.

As for `COc1ccc(CNc2nc3ccccc3nc2C(=O)O)cc1OC`, the GI50 in assay [1] was > 100 µM (inactive); in assay [2], > 100 µM (inactive); in [3] it was 83.8 µM; in assay [4] it was > 100 µM (inactive); in assay [5] it was > 100 µM (inactive); in [6], > 100 µM (inactive). The GI50 in [7], in [9], in [19], in [20], in assay [10] and in assay [11] was > 100 µM (inactive) throughout. In addition, the GI50 was > 100 µM (inactive) in [12]; 30.7 µM (inactive) in assay [15]; > 100 µM (inactive) in assay [16]; > 100 µM (inactive) in assay [17]; > 100 µM (inactive) in [18].

The values above are taken from ChEMBL document CHEMBL1201862, “PubChem BioAssay data set” (2004).
